This is an account of results in PubChem BioAssay (NCI).

Structures are written as SMILES.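 All cell lines were grown in 96-well plates and treated with compound for 48 hours. TGI marks complete inhibition of growth.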

Among the test systems are DMS 114 small cell lung; KM20L2 colon; P388 leukemia; SN12K1 renal; P388/ADR leukemia.
What all share (experiment): NCI tumour cell line growth inhibition, 48 h

Regarding `O=C(CSc1nnc(-c2ccc(N=Cc3ccc(Cl)cc3)cc2)o1)Nc1ccc([N+](=O)[O-])cc1`, the TGI in the experiment with DMS 114 small cell lung is 32.9 µM; in the experiment on KM20L2 colon, 73.5 µM.

`COc1cccc(-c2nccc3c(OCc4ccccc4)c(OC)c(OC)cc23)c1`: the TGI in the experiment with DMS 114 small cell lung and in the experiment with KM20L2 colon was greater than 100 µM throughout.

Take `CCCCn1c2ccccc2c2ccc3c(c21)C(=O)C=CC3=O`: the TGI in the experiment with DMS 114 small cell lung and with KM20L2 colon was greater than 100 µM each time.

For `Cn1ccnc1CCc1ccc(Cl)c(Cl)c1`, the TGI in the experiment on DMS 114 small cell lung and in the experiment with KM20L2 colon was greater than 100 µM throughout.

Consider `CCN(CC)CCOC(=O)Cc1cccc2c(=O)cc(-c3ccccc3)oc12`, for which the TGI is greater than 625 µM in the experiment with P388 leukemia; 137 µM in the experiment with DMS 114 small cell lung; greater than 214 µM in the experiment on KM20L2 colon; 127 µM with SN12K1 renal; greater than 625 µM with P388/ADR leukemia.

Regarding `Cc1c(-c2nnc(-c3ccccc3)o2)c(=O)n(-c2ccccc2)n1C`, the TGI in the experiment with DMS 114 small cell lung and in the experiment on KM20L2 colon was greater than 100 µM throughout.

With `CN(C)c1ccc(/C=C/C(=O)O)cc1`, the TGI with DMS 114 small cell lung and in the experiment with KM20L2 colon was greater than 100 µM throughout.

Turning to `C[n+]1c2ccccc2c(/C=N\NS(=O)(=O)c2ccc(Cl)cc2)c2ccccc21`, the TGI in the experiment on DMS 114 small cell lung and with KM20L2 colon was greater than 100 µM each time.

Turning to `O=[N+]([O-])c1ccc([N+]2=NC(c3ccccc3)=NN(c3ccccc3)C2)cc1`, the TGI in the experiment with DMS 114 small cell lung is 94.1 µM; in the experiment with KM20L2 colon, greater than 100 µM.

For the compound `CCN(CC)CCOc1ccc(C(O)(Cc2ccc(OC)cc2)c2ccccc2)cc1` (stereo not drawn), the values for the TGI with DMS 114 small cell lung and in the experiment with KM20L2 colon were 31.1 µM and 9.27 µM, respectively.
